BindingDB's records for doi:10.1016/s0960-894x(03)00330-5 (The University of Georgia, 2003)

Experiments:
[1] = In vitro antiviral activity against HIV-1 Reverse transcriptase wild type
[2] = In vitro antiviral activity against HIV-1 Reverse transcriptase M184V mutant

Cc1cn([C@H]2C=C[C@@H](CO)O2)c(=O)[nH]c1=O [2',3'-didehydro-3'-deoxythymidine]
EC50 [1]: 0.45 µM
EC50 [2]: 0.5 µM

Nc1nc(=O)n([C@@H]2C=C[C@H](CO)O2)cc1F [ACH-126443]
EC50 [1]: 0.18 µM
EC50 [2]: 0.14 µM

Nc1ccn([C@@H]2CS[C@H](CO)O2)c(=O)n1 [Epivir]
EC50 [1]: 0.042 µM
EC50 [2]: > 50 µM
